{
  "source": "paper PMC8795197",
  "about": "“Safety and activity of WX-0593 (Iruplinalkib) in patients with ALK- or ROS1-rearranged advanced non-small cell lung cancer: a phase 1 dose-escalation and dose-expansion trial” (Signal Transduction and Targeted Therapy, 2022)",
  "key": {"[1]": {"settings": "cynomolgus monkey, in vivo"}, "[2]": {"experiment": "Metabolite identification in plasma", "type": "in vivo, SD rat", "settings": "oral WX-0593", "excerpt": "Under current experimental conditions, a total of 2 metabolites in addition to the parent drug were detected in rat plasma: a demethylation metabolite, M2 (MW = 554.23, P - CH2) and a mono-oxidation and dehydrogenation product, M6 (MW = 582.23, P + O - 2H). Based on the % peak area from mass spectrometry, the drug exists primarily as the parent drug in the plasma of both male and female rats (97.24% in females and 96.81% in males). Metabolites M2 (2.76% in females and 2.88% in males) and M6 ([…] and 0.31% in males) were both secondary metabolites. Based on the types of metabolites, it is speculated that WX-0593 is mainly metabolized through demethylation, oxidation, and dehydrogenation after oral administration in rats. There was no significant difference in metabolites between female and male rats."}, "[3]": {"tested_on": "advanced NSCLC patients with ALK or ROS1 rearrangement", "experiment": "Phase 1 dose-escalation phase: antitumor activity (RECIST 1.1, investigators)", "type": "in vivo, human", "method": "The starting dose for WX-0593 was 30 mg, which was selected on the basis of preclinical toxicology studies (data unpublished), according to the International Conference on Harmonisation Guidance for Industry S9 Nonclinical Evaluation for Anticancer Pharmaceuticals.[30] Three patients were assigned to each dose level. In the dosing cohort of 30 mg, treatment included a single WX-0593 dose, followed by 7-day PK evaluation period, and subsequent daily oral dosing for continuous 21 days. In other dosing cohorts, WX-0593 was administered orally as a single dose in the 4-day PK run-in period, followed by dosing once per day in continuous 21-day cycles. The DLT observation period was the first cycle of WX-0593 treatment (the single-dose period and 21 days of multiple-dose period). Patients performed imaging evaluation at baseline, with computed tomography or magnetic resonance imaging of the chest, abdomen, pelvis, and brain. In the dose-escalation phase, the first efficacy evaluation was done after 3-week continuous administration of WX-0593 and every 6 weeks thereafter. […] If responses (CR or PR) were observed, repeat assessments were required to confirm the responses 4 weeks after the initial evaluation. […] AEs were assessed in all patients throughout this study and graded per the National Cancer Institute Common Terminology Criteria for Adverse Events version 4.03. In the dose-escalation phase, the primary endpoints were MTD, DLT, and safety assessed by investigators and the subsequent recommended dose of WX-0593. Safety parameters included TEAEs, SAEs, and TRAEs. The key secondary endpoints were PK parameters and preliminary antitumor activity of WX-0593. ORR was defined as the proportion of patients who had best overall response, including CR or PR. PFS was calculated from the date of the first dose of WX-0593 to the date of documented disease progression or death (whichever occurred first). DCR was defined as the proportion of patients who had best overall response, including CR, PR, or SD, with a duration of at least 12 weeks. TTP was calculated from the date when the first dose of WX-0593 was given to first documented disease progression. […] OS was calculated from the date when the first dose of WX-0593 was administered to the date of death from any cause. Safety analysis was performed in the SS, which was comprised of all patients treated with one dose of WX-0593 and with safety data recorded. Efficacy analysis was performed in the FAS, which was defined as all patients treated with at least one dose of WX-0593. The PK analysis set included all patients treated with at least one dose of WX-0593 and with at least one evaluable PK sample. […] Descriptive statistics were carried out to summarize patients’ baseline characteristics and safety. […] All time-to-event data (PFS, TTP, DOR, and OS) and their corresponding 95% CIs were estimated by Kaplan–Meier methods. PK parameter analyses were done with Phoenix WinNonlin version 8.0. All other statistical analyses were conducted using SAS version 9.4."}, "[4]": {"tested_on": "NCI-H3122 (EML4-ALK fusion gene positive) human NSCLC", "experiment": "CDX model: efficacy and exposure in plasma, tumor, brain, lung", "type": "in vivo", "excerpt": "NCI-H3122 (EML4-ALK fusion gene positive) is an ALK wild type human NSCLC. […] Higher drug concentration in the lungs provides the material basis for the treatment of lung cancer."}},
  "data": [
    {"smiles": "COc1cc(N2CCC3(CCN(C)CC3)CC2)ccc1Nc1ncc(Cl)c(Nc2ccccc2P(C)(C)=O)n1", "note": "[WX-0593]", "values": [
      {"measurement": "MTD as multiple of the effective dose in nude mice", "setting": "[1]", "result": 20, "unit": "times"},
      {"measurement": "% peak area from mass spectrometry in plasma", "setting": "[2]; female rats", "result": 97.24, "unit": "%"},
      {"measurement": "% peak area from mass spectrometry in plasma", "setting": "[2]; male rats", "result": 96.81, "unit": "%"},
      {"measurement": "ORR (n/N, 95%CI)", "setting": "[3]; ALK TKI naive, dose: 30, 60, 90, 120, 180, 240, 300 mg, 30 mg", "result": "66.7% (2/3, 9.4-99.2%)"},
      {"measurement": "ORR (n/N, 95%CI)", "setting": "[3]; ALK TKI naive, dose: 30, 60, 90, 120, 180, 240, 300 mg, 90 mg", "result": "50.0% (1/2, 1.3-98.7%)"},
      {"measurement": "ORR (n/N, 95%CI)", "setting": "[3]; ALK TKI naive, dose: 30, 60, 90, 120, 180, 240, 300 mg, 120 mg", "result": "75.0% (6/8, 34.9-96.8%)"},
      {"measurement": "ORR (n/N, 95%CI)", "setting": "[3]; ALK TKI naive, dose: 30, 60, 90, 120, 180, 240, 300 mg, 180 mg", "result": "83.3% (5/6, 35.9-99.6%)"},
      {"measurement": "ORR (n/N, 95%CI)", "setting": "[3]; ALK TKI naive, dose: 30, 60, 90, 120, 180, 240, 300 mg, 240 mg", "result": "60.0% (3/5, 14.7-94.7%)"},
      {"measurement": "ORR (n/N, 95%CI)", "setting": "[3]; ALK TKI naive, dose: 30, 60, 90, 120, 180, 240, 300 mg, 300 mg", "result": "100.0% (1/1, 2.5-100.0%)"},
      {"measurement": "DCR", "setting": "[3]; ALK-rearranged patients", "result": 89.1, "unit": "%"},
      {"measurement": "ORR (n/N, 95%CI)", "setting": "[3]; ALK-rearranged patients, total", "result": 63.0, "unit": "%"},
      {"measurement": "ORR (n/N, 95%CI)", "setting": "[3]; ALK-rearranged, ALK TKI naive, dose: 30, 60, 90, 120, 180, 240, 300 mg, 30 mg", "result": "100% (2/2, 15.8-100%)"},
      {"measurement": "ORR (n/N, 95%CI)", "setting": "[3]; ALK-rearranged, ALK TKI naive, dose: 30, 60, 90, 120, 180, 240, 300 mg, 60 mg", "result": "66.7% (2/3, 9.4-99.2%)"},
      {"measurement": "ORR (n/N, 95%CI)", "setting": "[3]; ALK-rearranged, ALK TKI naive, dose: 30, 60, 90, 120, 180, 240, 300 mg, 120 mg", "result": "85.7% (6/7, 42.1-99.6%)"},
      {"measurement": "ORR (n/N, 95%CI)", "setting": "[3]; ALK-rearranged, ALK TKI naive, dose: 30, 60, 90, 120, 180, 240, 300 mg, 180 mg", "result": "75.0% (3/4, 19.4-99.4%)"},
      {"measurement": "ORR (n/N, 95%CI)", "setting": "[3]; ALK-rearranged, ALK TKI naive, dose: 30, 60, 90, 120, 180, 240, 300 mg, 300 mg", "result": "100% (1/1, 2.5-100%)"},
      {"measurement": "ORR (n/N, 95%CI)", "setting": "[3]; ALK-rearranged, crizotinib and other ALK TKIs, dose: 30, 60, 90, 120, 180, 240, 300 mg, 120 mg", "result": "100% (1/1, 2.5-100%)"},
      {"measurement": "ORR (n/N, 95%CI)", "setting": "[3]; ALK-rearranged, crizotinib and other ALK TKIs, total", "result": "100% (3/3, 29.2- 100%)"},
      {"measurement": "ORR (n/N, 95%CI)", "setting": "[3]; ALK-rearranged, crizotinib only, total", "result": "40.0% (8/20, 19.1-63.9%)"},
      {"measurement": "DCR", "setting": "[3]; ROS1-rearranged patients", "result": 80.0, "unit": "%"},
      {"measurement": "ORR (n/N, 95%CI)", "setting": "[3]; ROS1-rearranged, crizotinib and other ALK TKIs, dose: 30, 60, 90, 120, 180, 240, 300 mg, 90 mg", "result": "0% (0/1, 0-97.5%)"},
      {"measurement": "ORR (n/N, 95%CI)", "setting": "[3]; ROS1-rearranged, crizotinib and other ALK TKIs, total", "result": "0% (0/2, 0-84.2%)"},
      {"measurement": "ORR (n/N, 95%CI)", "setting": "[3]; ROS1-rearranged, crizotinib only, dose: 30, 60, 90, 120, 180, 240, 300 mg, 90 mg", "result": "0% (0/1, 0-97.5%)"},
      {"measurement": "ORR (n/N, 95%CI)", "setting": "[3]; ROS1-rearranged, crizotinib only, total", "result": "0% (0/3, 0-70.8%)"},
      {"measurement": "median PFS", "setting": "[3]; ROS1 rearrangement, crizotinib-naive (n = 7)", "result": 3.65, "unit": "months"},
      {"measurement": "ORR (n/N, 95%CI)", "setting": "[3]; baseline CNS metastasis, total", "result": "9.1% (2/22, 1.1-29.2%)"},
      {"measurement": "ORR (n/N, 95%CI)", "setting": "[3]; baseline measurable CNS metastasis, total", "result": "33.3% (2/6,4.3-77.7%)"},
      {"measurement": "ORR (n/N, 95%CI)", "setting": "[3]; prior crizotinib and other ALK TKI, dose: 30, 60, 90, 120, 180, 240, 300 mg, 120 mg", "result": "100% (1/1, 2.5-100%)"},
      {"measurement": "ORR (n/N, 95%CI)", "setting": "[3]; prior crizotinib and other ALK TKI, total", "result": "100% (3/3, 29.2-100%)"},
      {"measurement": "DOR, median (95% CI)", "setting": "[3]; total (n=54)", "result": "10.87 (10.87, NR) mo"},
      {"measurement": "PFS, median (95% CI)", "setting": "[3]; total (n=54)", "result": "11.89 (5.03, 11.89) mo"},
      {"measurement": "TTP, median (95% CI)", "setting": "[3]; total (n=54)", "result": "11.89 (6.44, 11.89) mo"},
      {"measurement": "drug exposure in tumor tissue relative to brigatinib", "setting": "[4]; 5 mg/kg each", "result": 2, "unit": "times"},
      {"measurement": "efficacy compared with brigatinib", "setting": "[4]; 5 mg/kg each", "result": "comparable"},
      {"measurement": "plasma drug exposure compared with brigatinib", "setting": "[4]; 5 mg/kg each", "result": "comparable"},
      {"measurement": "drug exposure in the lungs relative to brigatinib", "setting": "[4]; 5 mg/kg each, 1 h after dosing", "result": "approximately 2 times"},
      {"measurement": "drug exposure in the brain relative to brigatinib", "setting": "[4]; 5 mg/kg each, 8 h after dosing", "result": "approximately 2 times"},
      {"measurement": "drug exposure in the lungs relative to brigatinib", "setting": "[4]; 5 mg/kg each, 8 h after dosing", "result": "approximately 3 times"},
      {"measurement": "treatment efficacy versus dose", "setting": "[4]; 2.5, 5, 10 mg/kg", "result": "increased with dose"},
      {"measurement": "rank of drug concentrations in tissues", "setting": "[4]; 1 h and 8 h after dosing, all dose arms (2.5, 5, 10 mg/kg)", "result": "lungs > tumor > brain"}
    ]}
  ]
}
